In article PMC6662923 (Chemical research in toxicology, 2018):

Assays:
[1] = ref Table S4; cited from earlier work
[2] = test system: male Swiss Webster mice; test: Lethality assay in mice; settings: for Time of most overdose events after drug exposure: bolus iv injection
[3] = human liver microsomes, 2 h incubation; cited from earlier work
[4] = test system: mice; parameters: unit not given beside the values; settings: literature value for LD50 in mice, ref not given; cited from earlier work
[5] = Lethality assay in mice; settings: male, Swiss Webster, mouse, in vivo, iv
[6] = test system: murine μ-OR; settings: cited from earlier work
[7] = post-mortem toxicology reports; cited from earlier work

Row | Molecule | Solubility in aqueous solution [1] | Time of most overdose events after drug exposure [2] [min] | Observations after oral dosing ([2]; oral, no deaths observed) | Conversion to mitragynine [3] [%] | LD50 iv, literature value [4] | LD50 at 24 h [5] [mg/kg] | Mode of binding at the murine μ-OR [6] | LD50 oral ([2]; oral, doses given in mg/kg) | Reported urine concentrations in overdose deaths involving Kratom [7] [µg/mL]
1 | CC[C@@H]1CN2CC[C@@]3(O)C(=Nc4cccc(OC)c43)[C@@H]2C[C@@H]1/C(=C\OC)C(=O)OC [7-hydroxymitragynine, 7-Hydroxymitragynine] | low solubility | ≤ 10 | severe respiratory depression and seizures were observed | 45 |  |  |  |  | 
2 | CC(=O)Oc1ccc2c3c1O[C@H]1[C@@H](OC(C)=O)C=C[C@H]4[C@@H](C2)N(C)CC[C@@]341 [heroin] |  |  |  |  | 21.8 | 23.7 |  |  | 
3 | mitragynine | low solubility | ≤ 10 |  |  |  |  | competitive antagonist | 547.7 | 0.167 to 1.2
